Calls of active or inactive are those of the source.
Columns and labels:
HT-29 [1] = assay: Antiproliferative activity against human HT-29 cells assessed as inhibition of cell growth incubated for 48 hrs by MTT assay; format: functional, cell-based; conditions: HT-29, 48 h
K562 = assay: Antiproliferative activity against human K562 cells assessed as inhibition of cell growth incubated for 48 hrs by MTT assay; format: functional, cell-based; conditions: K562, 48 h
HepG2 = assay: Antiproliferative activity against human HepG2 cells assessed as inhibition of cell growth incubated for 48 hrs by MTT assay; format: functional, cell-based; conditions: HepG2, 48 h
HT-29 [2] = assay: Induction of cell cycle arrest in human HT-29 cells assessed as accumulation of cells at G2/M phase incubated for 48 hrs by propidium iodide staining based flow cytometric analysis; format: functional
HT-29 [3] = assay: Induction of cell cycle arrest in human HT-29 cells assessed as accumulation of cells at G2/M phase at 4 uM incubated for 48 hrs by propidium iodide staining based flow cytometric analysis relative to control; format: functional
HT-29 [4] = assay: Induction of cell cycle arrest in human HT-29 cells assessed as downregulation of Cyclin B1 expression at 0.5 to 4 uM incubated for 48 hrs by Western blotting analysis; format: functional, cell-based; conditions: dose 0.5-4 µM
HT-29 [5] = assay: Induction of cell cycle arrest in human HT-29 cells assessed as […] of CDK1 expression at 0.5 to 4 uM incubated for 48 hrs by Western blotting analysis; format: functional, cell-based; conditions: dose 0.5-4 µM
HT-29 [6] = assay: Induction of ferroptosis in human HT-29 cells incubated for 48 hrs by MTT assay; format: functional, cell-based
HT-29 [7] = assay: Induction of cell death in human HT-29 cells incubated for 48 hrs in presence of ferroptosis inhibitor CPX by MTT assay; format: functional, cell-based
HT-29 [8] = assay: Induction of ferroptosis in human HT-29 cells assessed as increase in intracellular lipid peroxidation accumulation incubated for 48 hrs by C11 BODIPY 581/591 staining based flow cytometry; format: functional, cell-based
HT-29 [9] = assay: Induction of ferroptosis in human HT-29 cells assessed as decrease in GPX4 expression incubated for 48 hrs by Western blotting analysis; format: functional, cell-based
HT-29 [10] = assay: Induction of ferroptosis in human HT-29 cells assessed as decrease in GPx level at 1 to 4 uM incubated for 48 hrs; format: functional, cell-based; conditions: dose 1-4 µM
HT-29 [11] = assay: Induction of ferroptosis in human HT-29 cells assessed as decrease in intracellular GSH level at 1 to 4 uM incubated for 48 hrs; format: functional, cell-based; conditions: dose 1-4 µM
HT-29 [12] = assay: Induction of ferroptosis in human HT-29 cells assessed as increase in intracellular iron level incubated for 48 hrs in presence of ferroptosis inhibitor deferoxamine; format: functional, cell-based
HT-29 [13] = assay: Induction of ferroptosis in human HT-29 cells assessed as increase in intracellular iron level incubated for 48 hrs in presence of ferroptosis inhibitor CPX; format: functional, cell-based
HT-29 [14] = assay: Induction of ferroptosis in human HT-29 cells assessed as increase in intracellular lipid peroxidation accumulation incubated for 48 hrs in presence of ferroptosis inhibitor deferoxamine by C11 BODIPY 581/591 staining based flow cytometry; format: functional, cell-based
HT-29 [15] = assay: Induction of ferroptosis in human HT-29 cells assessed as increase in intracellular lipid peroxidation accumulation incubated for 48 hrs in presence of ferroptosis inhibitor CPX by C11 BODIPY 581/591 staining based flow cytometry; format: functional, cell-based
HT-29 [16] = assay: Induction of ferroptosis in human HT-29 cells assessed as increase in intracellular malondialdehyde accumulation incubated for 48 hrs in presence of ferroptosis inhibitor CPX; format: functional, cell-based
HT-29 [17] = assay: Induction of ferroptosis in human HT-29 cells assessed as decrease in GPx level incubated for 48 hrs in presence of ferroptosis inhibitor deferoxamine; format: functional, cell-based
HT-29 [18] = assay: Induction of ferroptosis in human HT-29 cells assessed as decrease in intracellular GSH level incubated for 48 hrs in presence of ferroptosis inhibitor deferoxamine; format: functional, cell-based
HT-29 [19] = assay: Induction of ferroptosis in human HT-29 cells assessed as decrease in intracellular GSH level incubated for 48 hrs in presence of ferroptosis inhibitor CPX; format: functional, cell-based
HT-29 [20] = assay: Induction of ferroptosis in human HT-29 cells assessed as increase in mitochondrial membrane density incubated for 48 hrs by transmission electron microscopic analysis; format: functional, cell-based
HT-29 [21] = assay: Induction of ferroptosis in human HT-29 cells assessed as mitochondrial morphological change incubated for 48 hrs in presence of ferroptosis inhibitor deferoxamine by transmission electron microscopic analysis; format: functional, cell-based
HT-29 [22] = assay: Induction of ferroptosis in human HT-29 cells assessed as fusion of mitochondrial cristae incubated for 48 hrs in presence of ferroptosis inhibitor deferoxamine by transmission electron microscopic analysis; format: functional, cell-based
HT-29 [23] = assay: Induction of autophagy in human HT-29 cells assessed as increase in MDC positive cells incubated for 48 hrs by MDC staining based flow cytometric analysis; format: functional, cell-based
HT-29 [24] = assay: Induction of autophagy in human HT-29 cells assessed as upregulation of ATG5 protein expression incubated for 48 hrs by Western blotting analysis; format: functional, cell-based
HT-29 [25] = assay: Induction of autophagy in human HT-29 cells assessed as upregulation of ATG7 protein expression incubated for 48 hrs by Western blotting analysis; format: functional, cell-based
HT-29 [26] = assay: Antiproliferative activity against human HT-29 cells assessed as inhibition of cell growth incubated for 48 hrs in presence of autophagy inhibitor 3-methyladenine by MTT assay; format: functional, cell-based
HT-29 [27] = assay: Antiproliferative activity against human HT-29 cells assessed as inhibition of cell growth incubated for 48 hrs in presence of autophagy inhibitor Spautin-1 by MTT assay; format: functional, cell-based
HT-29 [28] = assay: Induction of ferroptosis in human HT-29 cells assessed as increase in intracellular iron level incubated for 48 hrs in presence of autophagy inhibitor 3-methyladenine; format: functional, cell-based
HT-29 [29] = assay: Induction of ferroptosis in human HT-29 cells assessed as increase in intracellular lipid peroxidation accumulation incubated for 48 hrs in presence of autophagy inhibitor 3-methyladenine by C11 BODIPY 581/591 staining based flow cytometry; format: functional, cell-based
HT-29 [30] = assay: Induction of ferroptosis in human HT-29 cells assessed as decrease in GPx level incubated for 48 hrs in presence of autophagy inhibitor 3-methyladenine; format: functional, cell-based
HT-29 [31] = assay: Induction of ferroptosis in human HT-29 cells assessed as decrease in intracellular GSH level incubated for 48 hrs in presence of autophagy inhibitor 3-methyladenine; format: functional, cell-based
HT-29 [32] = assay: Induction of autophagy in human HT-29 cells assessed as increase in MDC positive cells incubated for 48 hrs in presence of ferroptosis inhibitor deferoxamine by MDC staining based flow cytometric analysis; format: functional, cell-based
HT-29 [33] = assay: Induction of ROS production in human HT-29 cells assessed as increase in DCF fluorescence intensity incubated for 48 hrs by DCFH-DA fluorescent probe based flow cytometry; format: functional, cell-based
HT-29 [34] = assay: Induction of ferroptosis in human HT-29 cells assessed as increase in intracellular malondialdehyde accumulation incubated for 48 hrs in presence of ROS scavenger NAC; format: functional, cell-based
HT-29 [35] = assay: Antiproliferative activity against human HT-29 cells assessed as inhibition of cell growth incubated for 48 hrs in presence of ROS scavenger NAC by MTT assay; format: functional, cell-based
Cell membrane = assay: Induction of mitochondrial membrane potential loss in human HT-29 cells assessed as decrease in orange-red fluorescence incubated for 48 hrs by JC-1 staining based flow cytometry; format: cell membranes
HT-29 [36] = assay: Antiproliferative activity against human HT-29 cells assessed as inhibition of cell growth at 1 to 10 uM incubated for 48 hrs by MTT assay; format: functional, cell-based; conditions: dose 1-10 µM

COc1ccc2c(c1)NCCN2C(=O)NCCCl
inactive: Activity (HT-29 [7]) | Activity (HT-29 [12]) | Activity (HT-29 [13]) | Activity (HT-29 [14]) | Activity (HT-29 [15]) | Activity (HT-29 [16]) | Activity (HT-29 [17]) | Activity (HT-29 [18]) | Activity (HT-29 [19]) | Activity (HT-29 [21]) | Activity (HT-29 [22]) | Activity (HT-29 [26]) | Activity (HT-29 [27]) | Activity (HT-29 [34]) | Activity (HT-29 [35])
active: Activity (HT-29 [2]) Dose-Dependent Effect | Activity (HT-29 [4]) | Activity (HT-29 [5]) | Activity (HT-29 [6]) | Activity (HT-29 [8]) Dose-Dependent Effect | Activity (HT-29 [9]) Dose-Dependent Effect | Activity (HT-29 [10]) | Activity (HT-29 [11]) | Activity (HT-29 [20]) | Activity (HT-29 [23]) Dose-Dependent Effect | Activity (HT-29 [24]) Dose-Dependent Effect | Activity (HT-29 [25]) Dose-Dependent Effect | Activity (HT-29 [28]) | Activity (HT-29 [29]) | Activity (HT-29 [30]) | Activity (HT-29 [31]) | Activity (HT-29 [32]) | Activity (HT-29 [33]) Dose-Dependent Effect | Activity (Cell membrane) Dose-Dependent Effect | Activity (HT-29 [36])
13.8 µM: IC50 (HepG2)
>80%: Activity (HT-29 [3])
1.97 µM: IC50 (HT-29 [1])
4.92 µM: IC50 (K562)

Reference: ChEMBL document CHEMBL5505995, “Discovery of novel urea derivatives as ferroptosis and autophagy inducer for human colon cancer treatment” (Eur J Med Chem, 2024)
